Test results taken from PubChem BioAssay (NCI).
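Test compounds were applied to cells in 96-well plates for 48 hours at 5 doses. Here, GI50 denotes the concentration required for 50% inhibition of growth. At the TGI there is no net growth.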 Where a SMILES comes first, the peptide text is derived from it. The star is where a group is joined. Palmitoyl = CCCCCCCCCCCCCCCC(=O)*

How the values were obtained:
Experiment in all cases: DTP human tumour cell line panel, 48 h
MCF7 breast = test system: MCF7 breast
RXF 393 renal = test system: RXF 393 renal
SK-MEL-28 melanoma = test system: SK-MEL-28 melanoma
SNB-75 CNS = test system: SNB-75 CNS
SF-539 CNS = test system: SF-539 CNS
SF-295 CNS = test system: SF-295 CNS
HCC-2998 colon = test system: HCC-2998 colon
HOP-62 NSCLC = test system: HOP-62 NSCLC
DU-145 prostate = test system: DU-145 prostate
MDA-MB-231 breast = test system: MDA-MB-231 breast

SMILES | TGI (MCF7 breast) [µM] | TGI (RXF 393 renal) [µM] | TGI (SK-MEL-28 melanoma) [µM] | TGI (SNB-75 CNS) [µM] | TGI (SF-539 CNS) [µM] | TGI (SF-295 CNS) [µM] | TGI (HCC-2998 colon) [µM] | TGI (HOP-62 NSCLC) [µM] | GI50 (SK-MEL-28 melanoma) [nM] | GI50 (SNB-75 CNS) [nM] | GI50 (SF-295 CNS) [nM] | GI50 (DU-145 prostate) [nM] | TGI (DU-145 prostate) [µM] | GI50 (HCC-2998 colon) [nM] | GI50 (HOP-62 NSCLC) [nM] | TGI (MDA-MB-231 breast) [µM] | GI50 (MCF7 breast) [µM] | GI50 (RXF 393 renal) [µM] | GI50 (MDA-MB-231 breast) [µM] | GI50 (SF-539 CNS) [µM]
Cn1c(-c2ccccc2)cc(-c2cccs2)c1-c1cccs1 | > 100 | > 100 | > 100 | > 100 | > 100 | > 100 | > 100 | > 100 |  |  |  |  |  |  |  |  |  |  |  | 
C/C(=N/N=C(\[O-])c1ccncc1)C(F)(F)F.C/C(=N\N=C(/[O-])c1ccncc1)C(F)(F)F.[Ni+2] |  |  | 0.005 | > 1 |  | > 1 | > 1 | > 1 | 1.08 | > 1000 | > 1000 | > 1000 | > 1 | > 1000 | > 1000 |  |  |  |  | 
CC(N)Cc1ccc(Cl)c(Cl)c1 (centres undefined) |  | 77.2 | 39.1 | > 92.3 | > 60.2 | > 80.1 | 31.2 | > 100 |  |  |  |  |  |  |  |  |  |  |  | 
Nc1[nH]c(=O)nc2c1cnn2C1CCCCO1 (centres undefined) |  | > 100 | > 100 | > 100 | > 100 | > 100 | > 100 |  |  |  |  |  |  |  |  |  |  |  |  | 
CON(C)c1nc(N(C)OC)nc(N(C)OC)n1 | > 10 | > 10 | > 10 | > 10 | > 10 | > 10 | > 10 | > 10 |  |  |  |  | > 10 |  |  | > 10 |  |  |  | 
Cc1cc(C)nc(NS(=O)(=O)c2ccc(NC(=O)c3cccc4c(Nc5ccc(S(=O)(=O)Nc6cc(C)on6)cc5)c5ccccc5nc34)cc2)n1 |  | 39.6 | 50 | 48.9 | 35.7 |  | 29.4 | 45.4 |  |  |  |  |  |  |  |  |  |  |  | 
CCN1CCC(O)(/C=C/c2ccccc2C)C(C(=O)/C=C/c2ccccc2C)C1 (centres undefined) | 7.37 | 3.67 | 6.71 | 16.6 | 4.28 | 6.68 | 2.61 | 3.74 |  |  |  |  | 4.05 |  |  | 7.11 |  |  |  | 
CCCCCCCCCCCCCCCC(=O)N1CCCC1C(=O)NCC(=O)NC(Cc1ccccc1)C(=O)NC(C)C(=O)NC(CO)C(=O)NC(Cc1ccc(O)cc1)C(=O)NC(CCCCN)C(=O)NC(CC(C)C)C(=O)NC(CCCN=C(N)N)C(=O)N1CCCC1C(=O)NCC(N)=O (centres undefined) (Palmitoyl-PGFASYKLRPG-NH2; configuration not given here) | 42.8 | 53.5 | 48.8 | 43.5 | 61.4 | 67.1 | 28.9 | 46 | 22100 | 22900 | 27300 | 15700 | 43.6 | 13400 | 21100 | 26.5 | 18.2 | 24.7 | 12.5 | 24
CC1=C(O)C2=C(C(=O)C1=O)[C@@H](C)CC[C@@H]2[C@@H](C)C/C=C/C(C)(C)O | > 100 |  |  |  | > 100 | > 100 |  | > 100 |  |  |  |  | > 100 |  |  | > 100 |  |  |  | 
C=C(C)C1Cc2c(c3ccccc3n(C)c2=O)O1 (centres undefined) |  |  | > 100 | > 100 | > 100 | > 100 |  |  |  |  |  |  |  |  |  |  |  |  |  | 
COC(=O)C1=C(OC(=O)/C(=C/c2ccc(Cl)cc2)c2ccc(Cl)cc2)C(C(=O)OC)[C@]2(O)[C@@H](C(=O)OC)[C@H]1C[C@@H](c1ccccc1)[C@@H]2C(=O)OC (some centres undefined) |  | > 100 | > 100 | > 100 | > 100 | > 100 |  | > 100 |  |  |  |  | > 100 |  |  | > 100 |  |  |  | 
c1ccc(-c2nc(N3CCNCC3)c3oc(-c4ccccc4)nc3n2)cc1 | 3.31 | 3.07 | 3.16 | 2.59 | 3.17 | 3.22 | 3.05 | 4.81 | 1730 | 1270 | 1750 | 1880 | 3.33 | 1580 | 2260 | 3.28 | 1.48 | 1.54 | 1.76 | 1.76
Nc1nc(Nc2ccccc2)c2[nH]cnc2n1 | > 100 | > 100 | > 100 | > 100 | > 100 | > 100 | > 100 | > 100 |  |  |  |  | > 100 |  |  | > 100 |  |  |  | 
COc1cc(C(C)O)c[n+](Cc2ccccc2)c1 (centres undefined) |  | > 100 | > 100 | > 100 | > 100 | > 100 | > 100 | > 100 |  |  |  |  |  |  |  |  |  |  |  | 
COC(=O)c1c(C)n([O-])c2cc(Cl)c(Cl)cc2[n+]1=O | > 100 | > 100 | 92.1 |  | 54.4 | > 100 | 32.1 | > 100 |  |  |  |  | 38.4 |  |  | 67.2 |  |  |  | 
OCCN(CCO)c1ncnc2nc[nH]c12 | > 100 | > 100 | > 100 |  |  | > 100 | > 100 | > 100 |  |  |  |  | > 100 |  |  | > 100 |  |  |  | 
Cc1c(-c2ccccc2)[nH]c2cc(Cl)ccc2c1=O | > 100 | 79.5 | > 100 |  | > 100 |  | > 100 | 60 |  |  |  |  | > 100 |  |  | > 100 |  |  |  | 
CC(C)C(C(=O)O)N1C(=O)c2ccccc2C1=O (centres undefined) | > 100 | > 100 | > 100 | > 100 |  | > 100 | > 100 | > 100 |  |  |  |  | > 100 |  |  | > 100 |  |  |  | 
c1cnc2c(c1)ccc1cccnc12 | > 100 | > 100 | > 100 | > 39.7 | > 100 | > 100 | > 62.4 | > 100 |  |  |  |  | > 100 |  |  | > 100 |  |  |  | 
CCOC(=O)c1c(C)n(-c2ccc(Cl)cc2)c2c1cc(O)c1[nH]c3c(c12)CCCC3 | > 100 | > 100 | > 100 | > 100 | > 100 | > 100 | > 100 | > 100 |  |  |  |  | > 100 |  |  | > 100 |  |  |  | 
O=C(/C=C/c1ccc(Oc2cc(C(=O)/C=C/c3ccc(O)cc3)c(O)cc2O)cc1)c1ccc(O)cc1O | 19.5 | 24.8 | 7.07 | 9.68 | 6.1 | 18.5 |  | 15.5 |  |  |  |  | 12.8 |  |  | > 100 |  |  |  | 
CN1C(c2ccccc2)CC(=O)C(N)C1c1ccccc1 (centres undefined) |  | > 31.6 | > 31.6 | > 100 | > 96.5 | > 100 | 43.3 | > 100 |  |  |  |  |  |  |  |  |  |  |  | 
